Experimental data taken from PMC9697131, “Agomelatine, Ketamine and Vortioxetine Attenuate Energy Cell Metabolism—In Vitro Study” (International Journal of Molecular Sciences, 2022).
Where “and” joins values, the source holds several entries; their conditions need not be identical. Identical values can stand only once.

Experiments:
[1] = target: T1, malate dehydrogenase (MDH) (Sus scrofa, UniProt P00346); assay: Malate dehydrogenase activity; format: biochemical, pig; settings: mean, N=3
T1 construct: Frozen mitochondria (stored at −70 °C) were used for the following enzyme activity measurements: ETC complexes, citrate synthase (CS) and malate dehydrogenase (MDH) activity; from tissue; host or cells: pig brain cortex, purified mitochondrial fraction (frozen, sonicated)
T1 sequence (P00346 25-338): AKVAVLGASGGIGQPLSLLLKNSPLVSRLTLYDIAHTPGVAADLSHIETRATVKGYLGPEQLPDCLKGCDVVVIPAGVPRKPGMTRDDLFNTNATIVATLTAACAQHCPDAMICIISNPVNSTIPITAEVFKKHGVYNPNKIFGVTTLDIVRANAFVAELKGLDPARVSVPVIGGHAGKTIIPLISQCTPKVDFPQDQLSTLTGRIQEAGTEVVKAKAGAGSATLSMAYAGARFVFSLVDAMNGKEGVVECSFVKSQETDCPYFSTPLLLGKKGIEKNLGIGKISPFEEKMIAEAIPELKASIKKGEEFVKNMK
Method: (§1) Pig brains were obtained from a slaughterhouse. Mitochondrial fraction isolation and purification from brain cortex were performed as previously described. Briefly, grey matter from pig brains was homogenized and crude mitochondrial fraction was isolated and then centrifuged on the sucrose gradient to obtain purified mitochondrial fraction. The freshly purified mitochondria were kept on ice until the assays were performed and were used for measurements of the mitochondrial oxygen consumption rate, measurements of ATP and ROS formation. Frozen mitochondria (stored at −70 °C) were used for the following enzyme activity measurements: ETC complexes, citrate synthase (CS) and malate dehydrogenase (MDH) activity.
(§2) Ultrasonication and incubation of mitochondria with the tested drugs for 30 min at 30 °C was performed before measurement with a corresponding drug-free control (DMSO) for every measurement. Mitochondrial enzymes activities were determined spectrophotometrically as absorbance using a GENESYS 180 UV-Vis Spectrophotometer (Thermo Fisher Scientific, Waltham, MA, USA).
The conversion of oxaloacetate to malate was used to measure the activity, and it was measured at 340 nm for 3 min. The reaction was initiated by adding oxaloacetate and nicotinamide adenine dinucleotide (NADH). […]

[2] = system: complex II+III (succinate cytochrome c oxidoreductase); assay: Complex II+III (succinate cytochrome c oxidoreductase) activity, spectrophotometric; format: biochemical; settings: 100 μM drug; pig brain mitochondria; mean ± SD
Method: as §1, §2
The activity of complex II+III was measured with an antimycin A-sensitive cyt c reduction at 550 nm for 3 min, and it was initiated by the addition of cyt c. The medium consisted of KH2PO4, EDTA, KCN and rotenone. The final protein concentration was 50 µg/mL and final drugs concentrations 2.5, 5, 10, 50 and 100 µM. Drug-free control (DMSO) was used as a control for each measurement.

[3] = system: complex I-linked ATP content, pig brain mitochondria; assay: Complex I-linked ATP content, bioluminescence; format: biochemical; settings: for complex I-linked ATP content (relative to control = 100%): mean ± SD
Method: as §1
The following protocol has been modified and optimized. An ATP Bioluminescence Assay Kit CLS II was used to measure ATP content and kinetics. The luminescence was measured using FluoroMax-3 (Jobin Yvon, Edison, NJ, USA) at 562 nm. Standard curve for ATP determination was prepared from ATP standard in the range from 0 to 600 nM. Tested substances were used at final concentrations 10, 50 and 100 µM, with drug-free control (DMSO) for each measurement and the final protein concentration was 50 µg/mL.
Mitochondria were incubated for 30 min on ice with the MiR05 buffer, tested substances and mitochondria. Consequently, the substrate mix was added, consisting of 5 mM malate and 5 mM pyruvate (for complex I) or 5 mM succinate and 1 μM rotenone (for complex II), 60 μM ADP and 0.75 mM MgCl2·6H2O and incubated for 30 min in 30 °C. Reaction was stopped by heating vials at 100 °C for 2 min. Background luminescence was measured. In total, 230 µL of luciferase reagent was added and total ATP° content for complex I and complex II+III was determined by measuring the luminescence for 1 min. Drug-free control (DMSO) was part of each measurement.

[4] = system: complex I-linked respiration, pig brain mitochondria; assay: Complex I-linked mitochondrial respiration, high-resolution respirometry; format: biochemical; settings: for effect on complex I-linked respiration (in words): titration 0.125–100 µM
Method: as §1
The mitochondrial oxygen consumption rate was measured by high-resolution respirometry using Oxygraph-2k (Oroboros Instruments Corp, Innsbruck, Austria). The final protein concentration was 0.05–0.14 mg/mL and the reaction mixture consisted of 2 mM malate, 5 mM pyruvate, 1.25 mM ADP and […] for complex I-linked respiration; 1.25 mM ADP, 0.75 mM MgCl2, 1 µM rotenone and 10 mM succinate for complex II-linked respiration. The following […] simultaneous measurements were assessed: a titration with the drug to the final drug concentrations of 0.125–100 µM in one chamber and a titration with a drug-free control (DMSO) in the second oxygraph chamber.
The respiration rate was expressed as pmol O2 consumed/second/mg of a protein.
The inhibition of respiration rate and MAO activity were analyzed by A four-parameter logistic regression with Prism software (GraphPad Software, San Diego, CA, USA) was used to analyze the respiratory rate inhibition and activity of MAO. […] The IC50 represents the drug concentration required to inhibit the difference between the baseline and the residual value of the mitochondrial oxygen flux or MAO activity by 50%.

[5] = system: complex IV (cytochrome c oxidase); assay: Complex IV (cytochrome c oxidase) activity, spectrophotometric; format: biochemical; settings: pig brain mitochondria, mean ± SD
Method: as §1, §2
The medium consisted of KH2PO4, and the reaction was initiated by reduced cyt c. The decrease in absorbance was measured at 550 nm for 3 min. The final protein concentration was 10 µg/mL and final drugs concentrations 10, 50 and 100 µM. Drug-free control (DMSO) was used as a control for each measurement.

[6] = system: complex I (NADH dehydrogenase); assay: Complex I (NADH dehydrogenase) activity, spectrophotometric; format: biochemical; settings: 100 μM drug, pig brain mitochondria, mean ± SD
Method: as §1, §2
The reaction mixture consisted of KH2PO4, MgCl2 and KCN and the reaction was started by adding decylubiquinone and NADH. The rotenone-sensitive NADH oxidation reaction was measured at 340 nm for 5 min. The final protein concentration was 150 µg/mL and final drugs concentrations 2.5, 5, 10, 50 and 100 µM. Drug-free control (DMSO) was used as a control for each measurement.

[7] = system: complex II+III-linked ATP kinetics, pig brain mitochondria; assay: Complex II+III-linked ATP kinetics, bioluminescence; format: biochemical; settings: 10 μM drug; mean ± SD
Method: as §1
The following protocol has been modified and optimized. An ATP Bioluminescence Assay Kit CLS II was used to measure ATP content and kinetics. The luminescence was measured using FluoroMax-3 (Jobin Yvon, Edison, NJ, USA) at 562 nm. Standard curve for ATP determination was prepared from ATP standard in the range from 0 to 600 nM. […]
For ATP kinetics determination MiR05 buffer, mitochondria and drugs were incubated on ice for 20 min and another 10 min at room temperature. Background luminescence was measured. Consequently, the same substrate mixture as mentioned above, and 230 µL of luciferase reagent were added and ATP kinetics was determined by measuring the luminescence for 4 min. […]

SMILES | MDH (% of Control) ([1]; 10 μM drug) | MDH (% of Control) ([1]; 100 μM drug) | complex II+III activity (relative to control = 100%) [2] [%] | complex I-linked ATP content (relative to control = 100%) ([3]; 100 μM drug) [%] | complex I-linked respiration rate (relative to control = 100%) ([4]; 50 μM drug, mean ± SD) [%] | residual activity of complex I-linked respiration ([4]; four-parameter logistic fit, mean ± SEM) [%] | IC50 ([4]; four-parameter logistic fit, mean ± SEM, listed as VOR) [µM] | effect on complex I-linked respiration (in words) [4] | complex IV activity (relative to control = 100%) ([5]; 100 μM drug) [%] | complex I activity (relative to control = 100%) ([6]; listed as VOR) | complex I-linked ATP content (relative to control = 100%) ([3]; 10 μM drug) [%] | complex IV activity (relative to control = 100%) ([5]; 10 μM drug) [%] | complex IV activity (relative to control = 100%) ([5]; 50 μM drug) [%] | complex I activity (relative to control = 100%) [6] [%] | complex II+III-linked ATP kinetics (relative to control = 100%) [7] [%] | effect on complex I-linked ATP content (in words) ([3]; 10, 50 and 100 µM)
Cc1ccc(Sc2ccccc2N2CCNCC2)c(C)c1 [vortioxetine] | 106.9 % of Control | 100.2 % of Control | 43.9 ± 1.2 | 119.0 ± 10.6 | 22.5 ± 7.1 | 4.7 | 10.5 | full inhibitor of complex I-linked respiration | 9.3 ± 3.8 | 5.5 ± 1.8% and 5.5% |  |  |  |  |  | 
COc1ccc2cccc(CCNC(C)=O)c2c1 [agomelatine] | 101.7 % of Control | 101.0 % of Control | 94.9 ± 4.3 |  |  |  |  | did not affect complex I-linked respiration at all | 12.8 ± 4.1 |  | 106.4 ± 4.0 | 45.0 ± 3.6 | 17.9 ± 3.4 | 73.7 ± 5.1 |  | 
CNC1(c2ccccc2Cl)CCCCC1=O (stereo not drawn) [ketamine] | 97.4 % of Control | 101.7 % of Control | 93.6 ± 2.6 |  |  |  |  | inhibited complex I-linked respiration very weakly | 3.9 ± 3.0 |  |  |  |  | 91.2 ± 6.6 | 84.9 ± 5.9 | no significant effect
